Experimental data published in patent publication US20240294522A1 (Lead Discovery Center GmbH, priority 2021, published 2024).

Legend:
[1] = target: T1, GRK5 (Homo sapiens, UniProt P34947); experiment: Lance Kinase Activity Assay, GRK5; settings: biochemical Lance kinase activity assay; class symbols A-F; read-out: GRK5 LANCE Assay (IC-50)
T1 construct: purchased Thermo Scientific
Experimental: (§1) This protocol describes how the Lance Kinase Activity Assay was performed to determine IC50 values of compounds of general formula (I) against GRK5 and GRK2.
(§2) The principle behind this enzymatic assay is based upon the phosphorylation of the Ulight-peptide substrate. It is detected by using a specific EU-labeled anti-phospho peptide antibody. The binding of the Eu labeled anti-phospho peptide antibody to the phosphorylated ULight labeled peptide gives rise to a FRET-signal. Binding of an inhibitor to the kinase prevents phosphorylation of the Ulight-substrate, resulting in a loss of FRET. In tables 2 and 3 the relevant information for these two LANCE assays is summarized.
(§3) For every sample, 2 μl of assay buffer (50 mM HEPES pH 7,5, 10 mM MgCL2, 1 mM EGTA 0,01% Tween 20, 1% DMSO, 2 mM DTT) were transferred into a suitable assay plate (e.g. Corning #3673). Compounds were added in a concentration range from 10 μM to 0.0025 μM using an acoustic dispenser (Echo520 from Labcycte, San Jose, USA) equipped with Echo Dose Response software. After that 6 μl of kinase-substrate mix was added. Reaction was started by addition of 2 μl ATP working solution and mixed using a Bioshake 5000 microplate shaker (Q Instruments, Jena, Germany).
(§4) After 1 h incubation at room temperature the reaction was stopped with 10 μl detection mix containing the Eu-labeled phosphospecific antibody and 10 mM EDTA. After a second incubation period of 1 h at room temperature the FRET signal was measured at 340 nm excitation, 665 nm and 615 nm emission (for the ULight-substrate and Eu-AB, respectively) with an Envision microplate reader (Perkin Elmer, Waltham, MA, USA) with 50 μs delay and 300 μs integration time. IC50 values were determined from the sigmoidal dose response curves with the software Quattro Workflow (Quattro GmbH, Munich, Germany).
(§5) Inhibition is indicated as IC50 [nM] (“−”=not measured). Compounds having an activity designated as “A” provided an IC50≤50 nM; compounds having an activity designated as “B” provided an 50 nM<IC50≤100 nM; compounds having an activity designated as “C” provided an 100 nM<IC50≤500 nM; compounds having an activity designated as “D” provided an 500 nM<IC50≤1000 nM; compounds having an activity designated as “E” provided an 1000 nM<IC50≤10000 nM; and compounds having an activity designated as “F” provided an IC50>10000 nM.

[2] = target: T2, GRK2 (Homo sapiens, UniProt P25098); experiment: Lance Kinase Activity Assay, GRK2; settings: biochemical Lance kinase activity assay; class symbols A-F; read-out: GRK2 LANCE Assay (IC-50)
T2 construct: purchased Thermo Scientific
T2 sequence (P25098 1-689): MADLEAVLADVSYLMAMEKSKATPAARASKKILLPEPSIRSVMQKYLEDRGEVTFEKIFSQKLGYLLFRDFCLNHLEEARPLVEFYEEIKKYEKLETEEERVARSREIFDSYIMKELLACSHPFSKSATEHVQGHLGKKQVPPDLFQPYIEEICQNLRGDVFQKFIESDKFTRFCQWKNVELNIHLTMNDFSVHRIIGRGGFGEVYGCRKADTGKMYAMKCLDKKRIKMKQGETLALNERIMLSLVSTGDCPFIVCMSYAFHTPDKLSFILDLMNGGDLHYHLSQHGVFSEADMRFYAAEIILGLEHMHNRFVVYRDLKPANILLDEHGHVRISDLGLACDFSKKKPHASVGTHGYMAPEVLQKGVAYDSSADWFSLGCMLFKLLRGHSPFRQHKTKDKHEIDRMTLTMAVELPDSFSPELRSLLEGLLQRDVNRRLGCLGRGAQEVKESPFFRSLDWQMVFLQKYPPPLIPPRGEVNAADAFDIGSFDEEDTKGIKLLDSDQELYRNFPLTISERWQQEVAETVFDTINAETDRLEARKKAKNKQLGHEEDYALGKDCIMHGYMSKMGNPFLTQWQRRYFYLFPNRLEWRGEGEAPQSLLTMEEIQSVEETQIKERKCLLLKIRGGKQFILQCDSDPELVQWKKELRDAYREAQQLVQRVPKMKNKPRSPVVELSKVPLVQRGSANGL
Experimental: as §1, §2, §3, §4, §5

T1 sequence (P34947 whole entry): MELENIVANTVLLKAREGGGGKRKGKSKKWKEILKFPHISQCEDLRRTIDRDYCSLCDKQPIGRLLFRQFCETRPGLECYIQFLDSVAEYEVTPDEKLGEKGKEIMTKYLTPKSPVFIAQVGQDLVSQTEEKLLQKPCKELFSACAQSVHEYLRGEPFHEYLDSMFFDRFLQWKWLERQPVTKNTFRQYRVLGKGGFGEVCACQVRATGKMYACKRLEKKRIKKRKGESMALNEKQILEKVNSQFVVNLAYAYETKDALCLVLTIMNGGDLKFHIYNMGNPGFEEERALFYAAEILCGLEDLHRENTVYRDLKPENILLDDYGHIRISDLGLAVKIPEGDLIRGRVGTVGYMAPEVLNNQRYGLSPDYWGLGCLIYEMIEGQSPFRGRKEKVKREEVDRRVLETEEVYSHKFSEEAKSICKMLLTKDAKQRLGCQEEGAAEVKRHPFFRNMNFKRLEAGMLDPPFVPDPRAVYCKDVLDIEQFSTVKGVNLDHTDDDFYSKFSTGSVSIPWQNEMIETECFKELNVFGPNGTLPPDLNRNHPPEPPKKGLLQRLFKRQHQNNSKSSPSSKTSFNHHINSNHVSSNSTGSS

Row | IC50 [1] | IC50 [2] | SMILES
1 | 100 to 500 nM | 100 to 500 nM | CC[C@@H](NC(=O)/C(C#N)=C/c1c[nH]c2ncccc12)c1ccccc1 [Example 68, (R,E)-2-cyano-N-(1-phenylpropyl)-3-(1H-pyrrolo[2,3-b]pyridin-3-yl)acrylamide]
2 | ≤ 50 nM | 1000 to 10000 nM | COc1ccc([C@@H](C)NC(=O)/C=C/c2c[nH]c3ncc(-c4ccc(C(N)=O)cc4)cc23)cc1OC [Example 200, (R,E)-4-(3-(3-((1-(3,4-dimethoxyphenyl)ethyl)amino)-3-oxoprop-1-en-1-yl)-1H-pyrrolo[2,3-b]pyridin-5-yl)benzamide]
3 | 100 to 500 nM | 500 to 1000 nM | C[C@@H](NC(=O)/C(C#N)=C/c1c[nH]c2nccc(Cl)c12)c1ccc(F)cc1 [Example 78, (R,E)-3-(4-chloro-1H-pyrrolo[2,3-b]pyridin-3-yl)-2-cyano-N-(1-(4-fluorophenyl)ethyl)acrylamide]
4 | 1000 to 10000 nM | 500 to 1000 nM | O=C(/C=C/c1c[nH]c2nccc(Cl)c12)NCc1cccc(F)c1 [Example 8, (E)-3-(4-chloro-1H-pyrrolo[2,3-b]pyridin-3-yl)-N-(3-fluorobenzyl)acrylamide]
5 | ≤ 50 nM | 1000 to 10000 nM | COc1ccc([C@@H](C)NC(=O)/C=C/c2c[nH]c3ncc(-c4cnn(CCN5CCOCC5)c4)cc23)cc1OC [Example 210, (R,E)-N-(1-(3,4-dimethoxyphenyl)ethyl)-3-(5-(1-(2-morpholinoethyl)-1H-pyrazol-4-yl)-1H-pyrrolo[2,3-b]pyridin-3-yl)acrylamide]
6 | 100 to 500 nM | 1000 to 10000 nM | N#C/C(=C\c1c[nH]c2ncccc12)C(=O)NCc1ccccc1C#N [Example 35, (E)-2-cyano-N-(2-cyanobenzyl)-3-(1H-pyrrolo[2,3-b]pyridin-3-yl)acrylamide]
7 | 100 to 500 nM | > 10000 nM | COc1ccc([C@@H](C)NC(=O)/C(C#N)=C/c2c[nH]c3nccc(-c4cc(F)cc(F)c4)c23)cc1OC [Example 178]
8 | 100 to 500 nM | > 10000 nM | COc1ccc([C@@H](C)NC(=O)/C(C#N)=C/c2c[nH]c3ncc(-c4ccc(F)cc4OC)cc23)cc1OC [Example 123]
9 | 100 to 500 nM | 1000 to 10000 nM | COc1ccc(CNC(=O)/C(C#N)=C/c2c[nH]c3ncccc23)cc1S(N)(=O)=O [Example 36, (E)-2-cyano-N-(4-methoxy-3-sulfamoylbenzyl)-3-(1H-pyrrolo[2,3-b]pyridin-3-yl)acrylamide]
10 | 500 to 1000 nM | 500 to 1000 nM | Cc1c(-c2cnn(C)c2)cnc2[nH]cc(/C=C(\C#N)C(=O)N[C@H](C)c3ccc(F)cc3)c12 [Example 98, (R,E)-2-cyano-N-(1-(4-fluorophenyl)ethyl)-3-(4-methyl-5-(1-methyl-1H-pyrazol-4-yl)-1H-pyrrolo[2,3-b]pyridin-3-yl)acrylamide]
11 | 1000 to 10000 nM | > 10000 nM | Cc1ccc(Br)cc1CNC(=O)/C(C#N)=C/c1c[nH]c2ncccc12 [Example 23, (E)-N-(5-bromo-2-methylbenzyl)-2-cyano-3-(1H-pyrrolo[2,3-b]pyridin-3-yl)acrylamide]
12 | 100 to 500 nM | 100 to 500 nM | N#C/C(=C\c1c[nH]c2ncccc12)C(=O)NCc1cccc(Cl)c1 [Example 60, (E)-N-(3-chlorobenzyl)-2-cyano-3-(1H-pyrrolo[2,3-b]pyridin-3-yl)acrylamide]
13 | 1000 to 10000 nM | 1000 to 10000 nM | N#C/C(=C\c1c[nH]c2ncc(Cl)cc12)C(=O)NCc1ccccc1 [Example 73, (E)-N-benzyl-3-(5-chloro-1H-pyrrolo[2,3-b]pyridin-3-yl)-2-cyanoacrylamide]
14 | 500 to 1000 nM | 500 to 1000 nM | N#C/C(=C\c1c[nH]c2ncccc12)C(=O)NCc1cc(F)cc(F)c1 [Example 67, (E)-2-cyano-N-(3,5-difluorobenzyl)-3-(1H-pyrrolo[2,3-b]pyridin-3-yl)acrylamide]
15 | ≤ 50 nM | 500 to 1000 nM | COc1ccc([C@@H](C)NC(=O)/C(C#N)=C/c2c[nH]c3ncc(-c4ccc(OCCCN(C)C)cc4)cc23)cc1OC [Example 138]
16 | ≤ 50 nM | 1000 to 10000 nM | COc1ccc([C@@H](C)NC(=O)/C(C#N)=C/c2c[nH]c3ncc(-c4cccc(OCCN(C)C)c4)cc23)cc1OC [Example 152]
17 | 1000 to 10000 nM | 1000 to 10000 nM | N#C/C(=C\c1c[nH]c2ncccc12)C(=O)NCc1ccc(C(F)(F)F)cc1 [Example 59, (E)-2-cyano-3-(1H-pyrrolo[2,3-b]pyridin-3-yl)-N-(4-(trifluoromethyl)benzyl)acrylamide]
18 | 100 to 500 nM | > 10000 nM | COc1ccc([C@@H](C)NC(=O)/C=C/c2c[nH]c3nccc(-c4cccc(CN(C)C)c4)c23)cc1OC [Example 224, (R,E)-N-(1-(3,4-dimethoxyphenyl)ethyl)-3-(4-(3-((dimethylamino)methyl)phenyl)-1H-pyrrolo[2,3-b]pyridin-3-yl)acrylamide]
19 | 100 to 500 nM | 1000 to 10000 nM | CC[C@@H](NC(=O)/C(C#N)=C/c1c[nH]c2ncc(Cl)cc12)c1ccccc1 [Example 77, (R,E)-3-(5-chloro-1H-pyrrolo[2,3-b]pyridin-3-yl)-2-cyano-N-(1-phenylpropyl)acrylamide]
20 | 50 to 100 nM | > 10000 nM | COc1ccc([C@@H](C)NC(=O)/C(C#N)=C/c2c[nH]c3ncc(-c4ccc(C#N)cc4)cc23)cc1OC [Example 139]
21 | ≤ 50 nM | > 10000 nM | COc1ccc([C@@H](C)NC(=O)/C(C#N)=C/c2c[nH]c3ncc(-c4cccc(N5CCN(C)CC5)c4)cc23)cc1OC [Example 122, (R,E)-2-cyano-N-(1-(3,4-dimethoxyphenyl)ethyl)-3-(5-(3-(4-methylpiperazin-1-yl)phenyl)-1H-pyrrolo[2,3-b]pyridin-3-yl)acrylamide]
22 | ≤ 50 nM | > 10000 nM | COc1ccc([C@@H](C)NC(=O)/C(C#N)=C\c2c[nH]c3ncc(-c4ccc(C#N)cc4)cc23)cc1OC [Example 140, (R,Z)-2-cyano-3-(5-(4-cyanophenyl)-1H-pyrrolo[2,3-b]pyridin-3-yl)-N-(1-(3,4-dimethoxyphenyl)ethyl)acrylamide]
23 | ≤ 50 nM | 1000 to 10000 nM | COc1ccc([C@@H](C)NC(=O)/C=C/c2c[nH]c3ncc(-c4cnn(C)c4)cc23)cc1OC [Example 204, (R,E)-N-(1-(3,4-dimethoxyphenyl)ethyl)-3-(5-(1-methyl-1H-pyrazol-4-yl)-1H-pyrrolo[2,3-b]pyridin-3-yl)acrylamide]
24 | 100 to 500 nM | 100 to 500 nM | C[C@@H](NC(=O)/C(C#N)=C/c1c[nH]c2ncccc12)c1ccc(Cl)c(Cl)c1 [Example 20, (R,E)-2-cyano-N-(1-(3,4-dichlorophenyl)ethyl)-3-(1H-pyrrolo[2,3-b]pyridin-3-yl)acrylamide]
25 | ≤ 50 nM | 1000 to 10000 nM | COc1ccc([C@@H](C)NC(=O)/C=C/c2c[nH]c3ncc(-c4cc(S(C)(=O)=O)ccn4)cc23)cc1OC [Example 259, (R,E)-N-(1-(3,4-dimethoxyphenyl)ethyl)-3-(5-(4-(methylsulfonyl)pyridin-2-yl)-1H-pyrrolo[2,3-b]pyridin-3-yl)acrylamide]

Row | SMILES | IC50 [1] | IC50 [2]
26 | CC[C@H](C)Oc1cnc2[nH]cc(/C=C(\C#N)C(=O)N[C@H](C)c3ccc(OC)c(OC)c3)c2c1 [Example 109, (E)-3-(5-((S)-sec-butoxy)-1H-pyrrolo[2,3-b]pyridin-3-yl)-2-cyano-N-((R)-1-(3,4-dimethoxyphenyl)ethyl)acrylamide] | ≤ 50 nM | > 10000 nM
